Results on seven molecules are retold here after US8716246B2, “Azuvirin peptides” (The Regents of the University of California, priority 2011, dated 2014).

“Also recorded” adds a separate entry of the source. Read-outs that look alike come from different tables or passages of the source. Bridge positions count the residues as written; N and C are the ends. Square brackets hold non-standard residues; d marks the D form. Ends that are not written are not given here. Peptide text beside a SMILES is read from it. * marks the point of attachment. Oic = O=C(O)[C@@H]1C[C@@H]2CCCC[C@@H]2N1; Cha = N[C@@H](CC1CCCCC1)C(=O)O; Tle = CC(C)(C)[C@H](N)C(=O)O; Nicotinoyl = O=C(c1cccnc1)*; Acm = CC(=O)NC*

Experiment [1] has as its system Lewis lung carcinoma (LLC). Put plainly: Artificial metastasis model: i.v. Lewis lung carcinoma plus local thoracic irradiation, lung tumor nodules counted. The format is in vivo, C57BL/6 mice. Particulars: for tumor colonies lower / radiation efficacy improved versus radiation alone: Example 1: 500 μg (~10 mg/kg) total i.p. in 4 daily doses 60 min before 4 Gy thoracic irradiation, equimolar controls, nodules day 14; for radiosensitizing effect in artificial metastasis model (in words): with radiation therapy (4 x 4 Gy), peptide or equimolar nicotinamide i.p. from day 4 after i.v. LLC. The method, then: The AzV-36-Nic conjugate was tested in vivo for its ability to radiosensitize Lewis lung carcinoma (LCC) in an artificial metastasis model. Briefly, C57BL/6 mice (8 weeks old) were intravenously injected with 5×10^5 cells of syngeneic LLC. Various treatments were initiated 4 days later, after cancer engraftment. In general, each animal received intraperitoneally a total of 500 μg (˜10 mg/kg) of peptide in 4 daily doses 60 mins before local thoracic irradiation (4 Gy). Animals were sacrificed on the 14th day of the experiment and lung tumor nodules were counted.
Animal experiments. Briefly, C57BL/6 mice (8 weeks old) were intravenously injected with 5×10^5 cells of syngeneic LLC. Various treatments were initiated 4 days later, after cancer engraftment. In general, each animal received intraperitoneally a total of 500 μg (˜10 mg/kg) of peptide in 4 daily doses 60 min before local thoracic irradiation (4 Gy). Animals were sacrificed on the 14th day of the experiment and lung tumor nodules were counted.
Animal experiments. C57BL/6 gnotobiotic mice (8 weeks old) were obtained from the UCLA AALAC accredited Department of Radiation Oncology Facility and intravenously injected with 5×10^5 cells of syngeneic LLC. Various treatments were initiated 4 days later, after cancer engraftment. In general, each animal received intraperitoneally a total of 500 μg (˜25 mg/kg) of peptide (or equimolar amount of nicotinamide) in 4 daily doses 60 min before local thoracic irradiation (0 or 4 Gy, total dose: 4.4=16 Gy) that was delivered using an Atomic Energy of Canada cesium gamma irradiator with a dose rate of approximately 0.6 Gy/min with the rest of the body shielded. Prior to irradiation animals were anesthetized by intraperitoneal injection of ketamine/xylazine mixture. Animals were sacrificed on the 14th day of the experiment and lung tumor nodules were counted. All experiments were approved by the UCLA Animal Care and Use Committee and conformed to local and national guidelines.

A further experiment has as its target rhEphB2/Fc (Homo sapiens, UniProt P29323). Description: SPR binding to immobilized rhEphB2/Fc (Biacore 3000). Also noted: Fc; purchased R&D Systems, Inc., Minneapolis, Minn. The method, then:
(§1) Binding to selected ephrin receptors was measured by surface plasmon resonance on a Biacore3000 instrument. Commercially available ephrin receptors: EphA2, EphB2 and EphB4 (R&D Systems) were immobilized on a CM-5 chip by amine coupling and tested peptides were passed over a chip surface as analytes.
(§2) Binding studies. Binding studies were performed by surface plasmon resonance (SPR) on a BIAcore 3000 system (BiaCore AB, Piscataway, N.J.). BIAcore CM5 sensor chips were utilized in all experiments. Binding studies were performed in HBS-EP running buffer (pH=7.4) containing 10 mM HEPES, 150 mM NaCl, 3 mM EDTA, and 0.005% polysorbate 20. Commercially available ephrin receptors: EphA2, EphB2 and EphB4 (R&D Systems, Inc., Minneapolis, Minn.) were immobilized on a CM5 sensor chip using the amine coupling method. The chip was activated by mixing 400 mM N-ethyl-N-(3-dimethylaminopropyl)-carbodiimide hydrochloride and 100 mM N-hydroxysuccinimide. Residual reactive groups on the chip surface were blocked using 1.0 M ethanolamine/HCl (pH=8.5). The flow cell-1 chip, which served as a control, lacked immobilized protein but was treated with N-ethyl-N-(3-dimethylaminopropyl)-carbodiimide hydrochloride, N hydroxysuccinimide, and ethanolamine/HCl. Binding signals were corrected for nonspecific binding by subtracting the flow cell-1 signal (blank surface). To regenerate chip surfaces, bound ligands were removed with 10 mM HCl. Data were analyzed with BIAevaluation 4.1 software (Biacore, Piscataway, N.J.).
(In general: Surface plasmon resonance follows binding to a sensor surface in real time, without labels.)

The next experiment deals with rhEphA2 (Homo sapiens, UniProt P29317). Put plainly: SPR binding to immobilized rhEphA2 (Biacore 3000). On the set-up: purchased R&D Systems, Inc., Minneapolis, Minn. Here is the method: as §1, §2
Another experiment concerns the target T1, rhEphB4 (Homo sapiens, UniProt P54760).
T1 construct: purchased R&D Systems, Inc., Minneapolis, Minn
T1 sequence (P54760 16-987): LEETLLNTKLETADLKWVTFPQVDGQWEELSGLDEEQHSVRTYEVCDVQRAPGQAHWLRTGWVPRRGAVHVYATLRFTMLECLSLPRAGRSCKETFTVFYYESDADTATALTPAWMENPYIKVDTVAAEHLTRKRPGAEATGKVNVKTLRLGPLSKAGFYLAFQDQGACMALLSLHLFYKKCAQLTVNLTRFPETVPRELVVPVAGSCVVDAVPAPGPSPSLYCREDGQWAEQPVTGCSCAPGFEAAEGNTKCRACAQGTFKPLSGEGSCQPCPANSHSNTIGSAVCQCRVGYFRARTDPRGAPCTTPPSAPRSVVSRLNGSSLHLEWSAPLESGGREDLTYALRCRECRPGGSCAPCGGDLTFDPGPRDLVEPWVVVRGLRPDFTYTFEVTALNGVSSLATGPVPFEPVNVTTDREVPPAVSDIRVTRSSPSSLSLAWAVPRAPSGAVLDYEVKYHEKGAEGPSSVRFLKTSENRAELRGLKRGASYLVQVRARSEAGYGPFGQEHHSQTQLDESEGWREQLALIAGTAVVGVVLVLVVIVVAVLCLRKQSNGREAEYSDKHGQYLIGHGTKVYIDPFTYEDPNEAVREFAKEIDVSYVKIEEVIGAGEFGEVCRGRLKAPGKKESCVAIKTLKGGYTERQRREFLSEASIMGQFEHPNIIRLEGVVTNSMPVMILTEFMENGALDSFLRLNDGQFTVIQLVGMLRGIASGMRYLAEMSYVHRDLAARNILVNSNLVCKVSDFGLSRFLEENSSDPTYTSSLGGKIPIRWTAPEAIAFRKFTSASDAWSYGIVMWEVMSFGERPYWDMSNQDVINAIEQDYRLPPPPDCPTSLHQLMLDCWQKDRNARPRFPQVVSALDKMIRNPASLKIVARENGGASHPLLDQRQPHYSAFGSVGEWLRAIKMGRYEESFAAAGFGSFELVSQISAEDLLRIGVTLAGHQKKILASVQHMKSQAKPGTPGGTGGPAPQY
Put plainly: SPR binding to immobilized rhEphB4 (Biacore 3000). Here is the method:
as §1, §2

As to `C[C@@H](O)[C@@H]1NC(=O)[C@H](CCCNC(=N)N)NC(=O)[C@H](Cc2c[nH]cn2)NC(=O)[C@@H](CCCNC(=N)N)NC(=O)[C@@H]2C[C@@H]3CCCC[C@@H]3N2C(=O)[C@H](CC2CCCCC2)NC(=O)[C@H](C(C)(C)C)NC(=O)[C@@H](NC(=O)[C@H](CC2CCCCC2)NC(=O)[C@H](CC2CCCCC2)NC(=O)[C@@H](CCCCN)NC(=O)[C@@H](N)Cc2ccc(O)cc2)CSSC[C@@H](C(=O)N[C@H](CCCCN)C(N)=O)NC(=O)[C@H](CC2CCCCC2)NC1=O` [AzV36, Yk-Cha-Cha-Cys-Tle-Cha-Oic-rHRT-Cha-Cys-k-CONH] (H-Y[dK][Cha][Cha]C[Tle][Cha][Oic][dR]HRT[Cha]C[dK]-NH2; disulfide 5-14; N-terminus assumed), in experiment [1], the “tumor colonies lower / radiation efficacy improved versus radiation alone” value is 1.3 fold. For the same molecule, the Kd came out at 164 ± 11 nM at rhEphB2/Fc (SPR, averaged from at least 4 independent experiments, read-out: KD ± SEM, rhEphB2/Fc); 126 ± 11 nM on rhEphA2 (SPR, averaged from at least 4 independent experiments, read-out: KD ± SEM, rhEphA2); 106 ± 15 nM at rhEphB4 (SPR, averaged from at least 4 independent experiments, read-out: KD ± SEM, rhEphB4).

As to `C[C@@H](O)[C@@H]1NC(=O)[C@H](CCCNC(=N)N)NC(=O)[C@H](Cc2c[nH]cn2)NC(=O)[C@@H](CCCNC(=N)N)NC(=O)[C@@H]2C[C@@H]3CCCC[C@@H]3N2C(=O)[C@H](CC2CCCCC2)NC(=O)[C@@H](CCCNC(=N)N)NC(=O)[C@@H](NC(=O)[C@H](CC2CCCCC2)NC(=O)[C@H](CC2CCCCC2)NC(=O)[C@H](CCCCN)NC(=O)[C@@H](N)Cc2ccc(O)cc2)CSSC[C@@H](C(=O)N[C@H](CCCCN)C(N)=O)NC(=O)[C@H](CC2CCCCC2)NC1=O` [AzV35] (H-YK[Cha][Cha]C[dR][Cha][Oic][dR]HRT[Cha]C[dK]-NH2; disulfide 5-14), the Kd came to 147 ± 19 nM at rhEphB2/Fc, 126 ± 22 nM at rhEphA2 and 73.5 ± 3.7 nM at rhEphB4.

On to `NC(=O)c1cccnc1` [nicotinamide, reference compound], for which the “radiosensitizing effect in artificial metastasis model (in words)” value in experiment [1] is on record as “no or minimal radiosensitizing effect; also recorded: only marginally improved radiation efficacy”; in experiment [1] (listed as Nic), “ineffective”.

On to `C[C@@H](O)[C@@H]1NC(=O)[C@H](CCCNC(=N)N)NC(=O)[C@H](Cc2c[nH]cn2)NC(=O)[C@@H](CCCNC(=N)N)NC(=O)[C@@H]2C[C@@H]3CCCC[C@@H]3N2C(=O)[C@H](CC2CCCCC2)NC(=O)[C@H](C(C)(C)C)NC(=O)[C@@H](NC(=O)[C@H](CC2CCCCC2)NC(=O)[C@H](CC2CCCCC2)NC(=O)[C@H](CCCCN)NC(=O)[C@@H](N)Cc2ccc(O)cc2)CSSC[C@@H](C(=O)N[C@H](CCCCN)C(N)=O)NC(=O)[C@H](CC2CCCCC2)NC1=O` [AzV32] (H-YK[Cha][Cha]C[Tle][Cha][Oic][dR]HRT[Cha]C[dK]-NH2; disulfide 5-14), for which the figures for the Kd at rhEphB2/Fc, on rhEphA2 and on rhEphB4 were 471 ± 160 nM, 169 ± 29 nM and 197 ± 90 nM, respectively.

With “AzV-36-Nic: Example 1: AzV-36 conjugated with nicotinic acid via amide bond; linear, 15 residues; probably AzV36-NicL (Y[dK](Nicotinoyl)[Cha][Cha]C[Tle][Cha][Oic][dR]HRT[Cha]C[dK]-NH2; not fully specified (bridges); printed as YkNic-Cha-Cha-Cys-Tle-Cha-Oic-rHRT-Cha-Cys-k-CONH; cysteine pairing not given here)”, in experiment [1], the “tumor colonies lower / radiation efficacy improved versus radiation alone” value is listed as 3-10 fold.

Regarding `C[C@@H](O)[C@@H]1NC(=O)[C@H](CCCNC(=N)N)NC(=O)[C@H](Cc2c[nH]cn2)NC(=O)CNC(=O)[C@@H]2C[C@@H]3CCCC[C@@H]3N2C(=O)[C@H](CC2CCCCC2)NC(=O)[C@@H](CCCNC(=N)N)NC(=O)[C@@H](NC(=O)[C@H](CC2CCCCC2)NC(=O)[C@H](CC2CCCCC2)NC(=O)[C@@H](CCCCN)NC(=O)[C@@H](N)Cc2ccc(O)cc2)CSSC[C@@H](C(=O)N[C@H](CCCCN)C(N)=O)NC(=O)[C@H](CC2CCCCC2)NC1=O` [AzV37] (H-Y[dK][Cha][Cha]C[dR][Cha][Oic]GHRT[Cha]C[dK]-NH2; disulfide 5-14), the results for the Kd on rhEphB2/Fc, at rhEphA2 and on rhEphB4 were 143 ± 37 nM, 152 ± 38 nM and 76 ± 14 nM, respectively.

On to `CC(=O)NCSC[C@H](NC(=O)[C@H](CC1CCCCC1)NC(=O)[C@H](CC1CCCCC1)NC(=O)[C@@H](CCCCN)NC(=O)[C@@H](N)Cc1ccc(O)cc1)C(=O)N[C@H](C(=O)N[C@@H](CC1CCCCC1)C(=O)N1[C@H](C(=O)N[C@H](CCCNC(=N)N)C(=O)N[C@@H](Cc2c[nH]cn2)C(=O)N[C@@H](CCCNC(=N)N)C(=O)N[C@H](C(=O)N[C@@H](CC2CCCCC2)C(=O)N[C@@H](CSCNC(C)=O)C(=O)N[C@H](CCCCN)C(N)=O)[C@@H](C)O)C[C@@H]2CCCC[C@@H]21)C(C)(C)C` [AzV36-L] (H-Y[dK][Cha][Cha]C(Acm)[Tle][Cha][Oic][dR]HRT[Cha]C(Acm)[dK]-NH2; N-terminus assumed), for which the “radiosensitizing effect in artificial metastasis model (in words)” value in experiment [1] is given as “no or minimal radiosensitizing effect; also recorded: only marginally improved radiation efficacy; also recorded: ineffective”.
